Experimental data: patent US20230165865A1, “HETEROARYLDIHYDROPYRIMIDINE DERIVATIVES AND METHODS OF TREATING HEPATITIS B INFECTIONS” (Janssen Pharmaceutica NV, priority 2018, published 2023)
pEC50: −log10 of the molar value. Read-outs that look alike come from different tables or passages of the source.

Columns and labels:
Type in all cases: cell-based
HBV = assay: Anti-viral assay in HepG2.2.15 cells: anti-HBV activity, HBV DNA in culture medium by qPCR; conditions: HepG2.2.15 cells, 6 days treatment, HBV DNA by qPCR, read-out: EC50
Protocol: (§1) HepG2.2.15 (the HepG2.2.15 cell line can be produced by transfection of the HepG2 cell line as described in Sells, Chen, and Acs 1987 (Proc. Natl. Acad. Sci. USA 84: 1005-1009), and the HepG2 cell line is available from ATCC® under number HB-8065™)
(§2) HepG2.2.15 cells were plated into 96-well plate in 2% FBS culture medium at the density of 40,000 cells/well and 5,000cells/well for HBV inhibitory activity and cytotoxicity determination, respectively. After incubation at 37° C., 5% CO2 overnight, cells were treated with medium containing compounds for 6 days with medium and compounds refreshed after 3 days of treatment. Each compound was tested in a 1:3 serial dilutions at 8 different concentrations in triplicate. The highest concentration of the compounds was 10 uM or 1 uM for anti-HBV activity assay and 100 uM for cytotoxicity determination.
The change of HBV DNA level induced by the compounds was assessed by quantitative real-time polymerase chain reaction (qPCR). Briefly, the HBV DNA in the culture medium was extracted using QIAamp 96 DNA Blood Kit according to the manual and then quantified by real-time PCR assay using the primers and probe in the table 1 below.
(§3) EC50 and CC50 values are calculated by the […] PRISM software.

HepG2.2.15 cells = assay: Cytotoxicity determination in HepG2.2.15 cells (CCK-8 assay); conditions: 6 days treatment, CCK-8, highest concentration 100 uM
Protocol: as §1, §2
(§4) Cell viability was determined by CCK-8 assay. After 6 days of compounds treatment, 20 μl CCK-8 reagents were added to each well of cytotoxicity assay plates. Cell plates were incubated at 37° C., 5% CO2 for 2.5 h. The absorbance at 450 nm wavelength and the absorbance at 630 nm wavelength as reference was measured.
as §3

[1] = as above; conditions: human, 6 days treatment, CCK-8, highest concentration 100 uM
Protocol: as §1, §2, §4, §3

[2] = Hepatitis B virus, HepG2.2.15, 144 h

Row | Structure (SMILES) | pEC50 (HBV) | CC50 (HepG2.2.15 cells) [µM] | pEC50 (HBV; [2]) | CC50 at 6 days [1] [µM]
1 | CCOC(=O)C1=C(CN2CCN3C(=S)N(C[C@@H](C)C(=O)O)C[C@@H]3C2)NC(c2ncoc2C)=NC1c1cccc(F)c1C (single isomer, unassigned) [Compound 32B, 3-(7-((5-(Ethoxycarbonyl)-6-(3-fluoro-2-methylphenyl)-2-(5-methyloxazol-4-yl)-3,6-dihydropyrimidin-4-yl)methyl)-3-thioxohexahydroimidazo[1,5-a]pyrazin-2(3H)-yl)-2-methylpropanoic acid] | 7.56 | 42.5 | – | –
2 | CCOC(=O)C1=C(CN2CCN3C(=S)N([C@H]4CC[C@@H](C(=O)O)C4)CC3C2)NC(c2nccs2)=N[C@H]1c1cccc(F)c1C (single isomer, unassigned) [Compound 24D] | 7.46 | 9.4 | – | –
3 | CCOC(=O)C1=C(CN2CCN3C(=S)N(CC(C)C(=O)O)C[C@@H]3C2)NC(c2nccs2)=N[C@H]1c1cccc(F)c1C (single isomer, unassigned) [Compound 27B] | 8.59 | 25.3 | – | –
4 | CCOC(=O)C1=C(CN2CCN3C(=S)N(CC(C)(C)C(=O)O)CC3C2)NC(c2nccs2)=N[C@H]1c1cccc(F)c1C (single isomer, unassigned) [Compound 1B] | 7.37 | 22.4 | – | –
5 | CCOC(=O)C1=C(CN2CCN3C(=S)N([C@@H]4CC[C@H](C(=O)O)C4)CC3C2)NC(c2nccs2)=N[C@H]1c1cccc(F)c1C (single isomer, unassigned) [Compound 24B] | 9.00 | 9.6 | – | –
6 | CCOC(=O)C1=C(CN2CCN3C(=S)N(CC4(C(=O)O)CC4)CC3C2)NC(c2nccs2)=N[C@H]1c1cccc(F)c1C (single isomer, unassigned) [Compound 9B] | 9.15 | 14.6 | – | –
7 | COC(=O)C1=C(CN2CCN3C(=S)N(CC(C)(C)C(=O)O)CC3C2)NC(c2nccs2)=NC1c1cccc(F)c1C (single isomer, unassigned) [Compound 10B, 3-(-7-((6-(3-Fluoro-2-methylphenyl)-5-(methoxycarbonyl)-2-(thiazol-2-yl)-3,6-dihydropyrimidin-4-yl)methyl)-3-thioxohexahydroimidazo[1,5-a]pyrazin-2(3H)-yl)-2,2-dimethylpropanoic acid] | – | – | 8.54 | 23.2
8 | CCOC(=O)C1=C(CN2CCN3C(=S)N(CC(C)(C)C(=O)O)CC3C2)NC(c2nccs2)=NC1c1cccc(F)c1Cl (single isomer, unassigned) [Compound 3A, 3-(7-((6-(2-chloro-3-fluorophenyl)-5-(ethoxycarbonyl)-2-(thiazol-2-yl)-3,6-dihydropyrimidin-4-yl)methyl)-3-thioxohexahydroimidazo[1,5-a]pyrazin-2(3H)-yl)-2,2-dimethylpropanoic acid] | 7.72 | – | – | 25.2
9 | COC(=O)C1=C(CN2CCN3C(=S)N(CC(C)(C)C(=O)O)C[C@@H]3C2)NC(c2ncoc2C)=N[C@H]1c1ccc(F)cc1Cl (single isomer, unassigned) [Compound 34A, 3-(7-((6-(2-Chloro-4-fluorophenyl)-5-(methoxycarbonyl)-2-(5-methyloxazol-4-yl)-3,6-dihydropyrimidin-4-yl)methyl)-3-thioxohexahydroimidazo[1,5-a]pyrazin-2(3H)-yl)-2,2-dimethylpropanoic acid] | – | – | 8.10 | 47.4
10 | CCOC(=O)C1=C(CN2CCN3C(=S)N(C)C[C@@H]3[C@H]2C(=O)O)NC(c2nccs2)=N[C@H]1c1cccc(F)c1Cl (relative stereo) [Compound 19A, (trans)-7-((6-(2-chloro-3-fluorophenyl)-5-(ethoxycarbonyl)-2-(thiazol-2-yl)-3,6-dihydropyrimidin-4-yl)methyl)-2-methyl-3-thioxooctahydro-imidazo[1,5-a]pyrazine-8-carboxylic acid] | – | – | 7.39 | 89.9
11 | CCOC(=O)C1=C(CN2CCN3C(=S)N(CC(C)(C)C(=O)O)CC3C2)NC(c2nccs2)=NC1c1ccc(F)cc1Br (single isomer, unassigned) [Compound 13A, 3-(7-((6-(2-Bromo-4-fluorophenyl)-5-(ethoxycarbonyl)-2-(thiazol-2-yl)-3,6-dihydropyrimidin-4-yl)methyl)-3-thioxohexahydroimidazo[1,5-a]pyrazin-2(3H)-yl)-2,2-dimethylpropanoic acid] | – | – | 9.00 | 14.7
12 | [2H][C@@]1(c2cccc(F)c2C)N=C(c2nccs2)NC(CN2CCN3C(=S)N(CC(C)(C)C(=O)O)C[C@@H]3C2)=C1C(=O)OCC (single isomer, unassigned) [Compound 36B, 3-(7-((6-Deutero-5-(ethoxycarbonyl)-6-(3-fluoro-2-methylphenyl)-2-(thiazol-2-yl)-3,6-dihydropyrimidin-4-yl)methyl)-3-thioxohexahydroimidazo[1,5-a]pyrazin-2(3H)-yl)-2,2-dimethylpropanoic acid] | – | – | 8.59 | 23
13 | CCOC(=O)C1=C(CN2CCN3C(=S)N(C)C[C@@H]3[C@H]2C(=O)O)NC(c2nccs2)=N[C@H]1c1cccc(F)c1C (single isomer, unassigned) [Compound 35B] | 8.96 | 46.6 | – | –
14 | COC(=O)C1=C(CN2CCN3C(=S)N(CC(C)(C)C(=O)O)CC3C2)NC(c2nccs2)=NC1c1ccc(F)cc1Cl (single isomer, unassigned) [Compound 4A, 3-(7-((6-(2-chloro-4-fluorophenyl)-5-(methoxycarbonyl)-2-(thiazol-2-yl)-3,6-dihydropyrimidin-4-yl)methyl)-3-thioxohexahydroimidazo[1,5-a]pyrazin-2(3H)-yl)-2,2-dimethylpropanoic acid] | 7.31 | 52.8 | – | –
